Assay results reported in patent US8609659B2, “Substituted 3,8-diazabicyclo[3.2.1]octane compounds” (Neuroscienze Pharmaness S.C.A.R.L., priority 2009, dated 2013).
Where two headings read alike, the source gives them in different places.

What was measured:
[1] = target: T1, δ opioidergic receptors (Mus musculus, UniProt P32300); assay: Ex-vivo model, isolated organ: electrically induced contractions of mouse vas deferens; conditions: for % contraction inhibition: no antagonist, average of 7 experiments; for activity towards the delta opioid receptors: inhibition of contractions antagonized by ICI 17.4864 or Naltrindol; for inhibition: read-out: % contraction inhibition after addition of ICI 17.4864
T1 construct: from tissue; host or cells: CD1 mouse vas deferens segments (isolated organ)
T1 sequence (P32300 whole entry): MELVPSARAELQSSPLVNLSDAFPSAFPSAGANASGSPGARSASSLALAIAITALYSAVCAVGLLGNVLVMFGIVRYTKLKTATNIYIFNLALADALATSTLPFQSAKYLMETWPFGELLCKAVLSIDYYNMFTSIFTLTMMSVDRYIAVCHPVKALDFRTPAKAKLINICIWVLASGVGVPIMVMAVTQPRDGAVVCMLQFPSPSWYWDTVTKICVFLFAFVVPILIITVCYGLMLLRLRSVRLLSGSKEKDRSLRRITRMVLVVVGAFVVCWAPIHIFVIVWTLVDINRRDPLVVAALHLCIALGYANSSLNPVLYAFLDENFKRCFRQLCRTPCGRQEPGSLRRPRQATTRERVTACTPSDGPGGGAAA
Experimental: Said effect is antagonized by selective antagonists of the delta opioid receptors, for example the compounds ICI 17.4864 and Naltrindol.
For evaluating the activity of the compounds of the invention on the delta opioid receptors, the compounds respectively obtained in Examples 6.1 and 6.9 were subjected to tests carried out on the basis of the method described by E. J. Bilsky et al. (J.P.E.T., 1995 April; 273 (1):359-366). The experiments were carried out on samples of vas deferent segments taken from CD1 mice (25-30 grams) immediately after sacrifice. After the explant, the vas deferent segments were transferred in a Petri dish containing a Krebs oxygenated solution (118.2 mM NaCl, 4.75 mM KCl, 1.19 mM KH2PO4, 25.0 mM NaHCO3, 11.0 mM glucose, and 2.54 mM CaCl2) in order to proceed to the cleaning of the samples and their subsequent dissection in segments. Segments of vas deferens were so obtained having a length of 1.0-1.2 cm. They were thus immersed in tubs containing 10 ml of an oxygenated Krebs solution (95% O2 and 5% CO2) and kept at a temperature of 37° C. One end of the vas deferens segment was attached to a fixed support, at the tub bottom, while the other end was connected to an isometric force transducer (WPI Fort10, Biological Instruments, Besozzo, Italy) for the registration of the contractions induced by electric stimuli. The samples were then allowed to equilibrate for 60 minutes, changing the Krebs solution every 15 minutes. The samples were then subjected to treatment cycles wherein the electrical stimulation lasted 3 minutes, with an interval of 15 minutes before the following stimulation. The isometric contractions were evoked with sequences of 3 pulses (sequence frequency 0.1 Hz; pulse duration 2 ms) by means of platinum electrodes placed at the sides of the samples. The electrical stimuli were generated by a Grass S88K stimulator and amplified (multiplexing pulse booster 316S; Ugo Basile, Comerio, Italy). The musculature contractions of the vas deferens were monitored by a computer, recorded and analyzed by an analysis system (PowerLab 400). The compounds of the invention were added to the vas deferens in cumulative doses, in the absence or in the presence of one of the following antagonists of the delta opioid receptors: ICI 17.4864 and Naltrindol.
The effect of the tested compounds on the contractions of vas deferens musculature was expressed in percent, calculated by referring the amplitude of the contractions induced by the electrical stimulations after each addition of the test compound to the amplitude of the contractions obtained in the absence of the same compound (100%).
The results obtained with the compounds of Examples 6.1 and 6.9 are reported, respectively, in Table 2 and in Table 3. The results are an average of the data obtained in seven different experiments.

[2] = test system: mouse; format: in vivo; conditions: 5 mg/Kg i.p., average ± SEM of 6 animals
Experimental: In the Tail Flick test it is determined the time elapsed between the exposure of one part of the mouse tail (2 cm measured from the tail tip) to a small heat source and the time when the animal moves away the tail (Ruiu) S. et al. in J. Pharmacol. Exp. Ther.; 306 (1) (2003) 363-370). This time interval is automatically calculated by a specific equipment for the Tail-Flick test (Apparatus for the Tail Flick, Ugo Basile, Italy). The equipment is provided with an infrared lamp that is the heat regulatable source. For avoiding lesions to the tail tissues a maximum latency time has been fixed (cut-off=12 sec), after which the tail is moved away from the heat source.
The values of the latency time obtained in the experimentation were expressed in MPE % (maximum possible effect %), according to the formula:
[formula] wherein: Test Latency is the time in seconds elapsed before the animal moves away the tail from the heat source, Base Latency is the time in seconds elapsed before the same, untreated animal moves away the tail from the heat source.
The analgesic potency of the compound obtained in Example 6.1 was evaluated. The compound was solubilized in an aqueous solution (carrier), formed of a mixture of a physiological solution, ethanol and Cremophor® EL in the ratios by volume: 18.5:1.0:0.5. The blank or control was the carrier. The test compound was administered by intraperitoneal (i.p.) route, by using a solution volume to obtain a dose of 5 mg/kg.
The duration of the analgesic effect was evaluated by determining the MPE % values obtained at different times (20, 40, 60, 120 minutes) from administration of the compound and of the corresponding control (carrier).
Example 13 was repeated but using the compound synthesized in Ex. 6.9. The analgesic activity was evaluated at 30, 60, 120 and 240 minutes from the administration of the compound. The compound was administered at the dose of 5 mg/Kg after solubilization in an aqueous solution (carrier) formed of physiological solution, ethanol and Cremophor® EL in the same ratios as indicated in Example 13.
In order to evaluate the property of the compounds of formula (I) in the modulation of the analgesic effect of morphine, the Tail Flick test was carried out by using either only morphine or morphine in association with the compound of Ex. 6.9. The procedure described in Ex. 13 was repeated by recording the MPE % values at different times from the administration of the tested compounds: 30, 60, 120 and 240 minutes.

[3] = compound 10^−6 moles/litre + NTI 5 × 10^−8 M
[4] = compound 10^−7 moles/litre + NTI 5 × 10^−8 M
[5] = compound 10^−8 moles/litre + NTI 5 × 10^−8 M
[6] = compound 10^−9 moles/litre + NTI 5 × 10^−8 M
[7] = compound 10^−10 moles/litre + NTI 5 × 10^−8 M
[8] = compound 10^−11 moles/litre + NTI 5 × 10^−8 M

SMILES: C=CCN1C2CCC1C1CCC2N1C(c1ccc(C(=O)N(CC)CC)cc1)c1cccc(OC)c1 (stereo not shown) [Example 6.1, 4-[(10-allyl-9,10-diazatricyclo[4.2.1.1^2,5]dec-9-yl)-(3-methoxyphenyl)methyl]-N,N-diethylbenzamide]
- % contraction inhibition after addition of Naltrindol NTI [1, 3]: 41.0%
- % contraction inhibition ([1]; compound 10^−6 moles/litre): 86.0%
- % contraction inhibition after addition of Naltrindol NTI [1, 4]: 24.9%
- % contraction inhibition ([1]; compound 10^−7 moles/litre): 71.5%
- % contraction inhibition after addition of Naltrindol NTI [1, 5]: 19.0%
- % contraction inhibition ([1]; compound 10^−8 moles/litre): 51.0%
- % contraction inhibition after addition of Naltrindol NTI [1, 6]: 11.5%
- % contraction inhibition ([1]; compound 10^−9 moles/litre): 32.0%
- % contraction inhibition after addition of Naltrindol NTI [1, 7]: 5.0%
- % contraction inhibition ([1]; compound 10^−10 moles/litre): 16.0%
- % contraction inhibition after addition of Naltrindol NTI [1, 8]: 4.0%
- % contraction inhibition ([1]; compound 10^−11 moles/litre): 5.5%
- activity towards the delta opioid receptors [1]: agonist activity
- MPE % ([2]; 20 min): 15.1 ± 3.5%
- MPE % ([2]; 40 min): 50.1 ± 12.0%
- MPE % ([2]; 60 min): 20.0 ± 3.0%
- MPE % ([2]; 120 min): 13.2 ± 2.8%

SMILES: C=CCN1C2CCC1C1CCC2N1C(c1ccc(C(=O)N(CC)CC)cc1)c1cccc(O)c1 (stereo not shown) [Example 6.9, 4-[(10-allyl-9,10-diazatricyclo[4.2.1.1^2,5]dec-9-yl)-(3-hydroxyphenyl)methyl]-N,N-diethylbenzamide]
- inhibition ([1]; compound 10^−6 moles/litre + ICI 17.4864 2 × 10^−6 M): 52.2%
- % contraction inhibition after addition of Naltrindol NTI [1, 3]: 67.5%
- % contraction inhibition ([1]; compound 10^−6 moles/litre): 85.0%
- inhibition ([1]; compound 10^−7 moles/litre + ICI 17.4864 2 × 10^−6 M): 28.2%
- % contraction inhibition after addition of Naltrindol NTI [1, 4]: 29.0%
- % contraction inhibition ([1]; compound 10^−7 moles/litre): 83.0%
- inhibition ([1]; compound 10^−8 moles/litre + ICI 17.4864 2 × 10^−6 M): 9.5%
- % contraction inhibition after addition of Naltrindol NTI [1, 5]: 8.9%
- % contraction inhibition ([1]; compound 10^−8 moles/litre): 70.0%
- inhibition ([1]; compound 10^−9 moles/litre + ICI 17.4864 2 × 10^−6 M): 4%
- % contraction inhibition after addition of Naltrindol NTI [1, 6]: 5.2%
- % contraction inhibition ([1]; compound 10^−9 moles/litre): 40.0%
- inhibition ([1]; compound 10^−10 moles/litre + ICI 17.4864 2 × 10^−6 M): 2.5%
- % contraction inhibition after addition of Naltrindol NTI [1, 7]: 4.5%
- % contraction inhibition ([1]; compound 10^−10 moles/litre): 17.0%
- inhibition ([1]; compound 10^−11 moles/litre + ICI 17.4864 2 × 10^−6 M): 1.8%
- % contraction inhibition after addition of Naltrindol NTI [1, 8]: 3.0%
- % contraction inhibition ([1]; compound 10^−11 moles/litre): 7.5%
- activity towards the delta opioid receptors [1]: agonist activity
- MPE % ([2]; 30 min): 30.1 ± 2.7%
- MPE % ([2]; 60 min): 32.8 ± 10.0%
- MPE % ([2]; 120 min): 18.5 ± 2.0%
- MPE % ([2]; 240 min): 1.2 ± 0.6%
